In patent US20120225909A1, “INDAZOLE ANALOG” (priority 2009, published 2012):
Like-named read-outs stand apart in the source and are kept apart here.

How the values were obtained:
[1] = biological target: T1, human α1A-adrenergic receptor (Homo sapiens, UniProt P35348); assay: Test Case 4-A: human α1A-adrenergic receptor agonist activity (HEK293, Ca flux, Fura-2); type: cell-based; set-up: expressed in transfected cells; host or cells: HEK293 cells, pcDNA3.1
T1 sequence (P35348 1-466): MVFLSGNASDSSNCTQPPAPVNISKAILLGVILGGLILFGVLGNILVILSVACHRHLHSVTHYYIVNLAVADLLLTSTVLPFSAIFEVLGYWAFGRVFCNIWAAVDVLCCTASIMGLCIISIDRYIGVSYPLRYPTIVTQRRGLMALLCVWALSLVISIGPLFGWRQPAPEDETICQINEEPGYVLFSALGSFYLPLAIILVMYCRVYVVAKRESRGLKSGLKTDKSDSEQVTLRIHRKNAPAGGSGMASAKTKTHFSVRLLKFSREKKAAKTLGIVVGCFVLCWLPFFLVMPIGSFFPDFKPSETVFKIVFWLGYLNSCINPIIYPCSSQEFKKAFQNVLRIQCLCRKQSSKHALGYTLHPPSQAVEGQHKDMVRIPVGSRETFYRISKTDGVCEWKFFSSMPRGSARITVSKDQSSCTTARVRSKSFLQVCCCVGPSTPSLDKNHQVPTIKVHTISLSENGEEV
Method in brief: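 Fura-2AM-loaded HEK293 cells transfected with human α1A were preincubated for 180 s. Compound (sample plate 10^−5 to 10^−12 M) was added after ~30 s of 340/380 nm excitation ratio reading (500 nm emission, 2-s intervals), followed by 270 s more reading. Ca flux is the peak height: maximum ratio after addition minus the pre-addition ratio.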

[2] = biological target: T2, human β2-adrenergic receptor (Homo sapiens, UniProt P07550); assay: Test Case 3-B: human β2-adrenergic receptor agonist activity; type: cell-based; settings: read-out: β2 receptor I.A.
T2 construct: expressed in transfected cells; host or cells: CHO (Chinese hamster ovary) cells, pcDNA3
T2 sequence (P07550 whole entry): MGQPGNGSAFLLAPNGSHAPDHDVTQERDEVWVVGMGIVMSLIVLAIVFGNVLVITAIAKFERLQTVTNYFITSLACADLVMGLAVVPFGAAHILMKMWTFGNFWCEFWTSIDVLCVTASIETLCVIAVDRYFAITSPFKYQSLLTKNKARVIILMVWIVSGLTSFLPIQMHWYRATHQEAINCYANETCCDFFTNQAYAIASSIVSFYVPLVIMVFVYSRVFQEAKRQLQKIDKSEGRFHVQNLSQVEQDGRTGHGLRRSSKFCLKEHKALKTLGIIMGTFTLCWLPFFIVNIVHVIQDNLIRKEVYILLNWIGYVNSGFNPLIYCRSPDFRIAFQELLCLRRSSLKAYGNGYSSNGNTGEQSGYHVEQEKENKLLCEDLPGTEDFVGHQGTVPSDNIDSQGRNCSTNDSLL
Description: Measurement of Human β2-Adrenergic Receptor Agonist Activity
The human β2-adrenergic receptor agonist activity is measured by the same method as in Test Case 1-B using CHO (Chinese hamster ovary) cells transfected by a human β2 gene inserted in pcDNA3 (Invitrogen).

[3] = test system: Male C57BL/6 Cr mice; assay: Test Case 10: mouse piloerection test; type: in vivo; settings: 10 mg/kg i.v.
[4] = test system: pentobarbital-anesthetized rats; assay: Test Case 9: effects on the blood pressure and heart rate in pentobarbital-anesthetized rats; type: in vivo, rat; settings: anesthetized male SD rats; 3 mg/kg intravenous over 30 seconds; maximum change, mean±standard deviation
Description: Effects on the blood pressure and heart rate in pentobarbital-anesthetized rats
The blood pressure and heart rate of rats under pentobarbital anesthesia are measured, and the effects of rapid intravenous administration of the test compound on the blood pressure and heart rate can be studied. After anesthetizing male SD rats (Japan SLC) by intraperitoneal administration of 50 mg/kg of pentobarbital sodium (Tokyo Chemical Industry Co., Ltd.), 25 mg/kg of pentobarbital sodium is administered subcutaneously as maintenance anesthesia. The left femoral vein is exposed and stripped, and a SP10 polyethylene tube filled with saline (connected to a three-way stopcock via a ¼ venous needle) is inserted and left in place in the vein.
The inside of the left thigh is cut, and the femoral artery is exposed and stripped. A polyethylene tube filled with heparinized physiological saline solution (SP31, connected to a three-way stopcock via a Terumo injection needle 22G) is inserted and connected to a pressure transducer. The blood pressure is measured from the pressure transducer via a strain pressure amplifier (AP-641G, Nihon Kohden). The heart rate is measured with the pulse wave of the blood pressure as a trigger via a heart rate counter (AT-601G, Nihon Kohden). The blood pressure, mean blood pressure, and heart rate are output to a recorder and recorded. Furthermore, the mean blood pressure is recorded via the strain pressure amplifier (AP-641G) using the formula {[…]}.
Specifically, 3 mg/mL of test compound is administered rapidly at a volume of 1 mL/kg. The relative value (%) of the values at each point in time versus the mean blood pressure and heart rate before beginning administration are determined for each individual, and the mean±standard deviation of the relative value (%) at the time of the maximum change in each parameter is determined.

[5] = biological target: T3, human β1-adrenergic receptor (Homo sapiens, UniProt P08588); assay: Test Case 2-B: human β1-adrenergic receptor agonist activity; type: cell-based; settings: read-out: β1 receptor I.A.
T3 construct: expressed in transfected cells; host or cells: CHO (Chinese hamster ovary) cells, pcDNA3
T3 sequence (P08588 whole entry): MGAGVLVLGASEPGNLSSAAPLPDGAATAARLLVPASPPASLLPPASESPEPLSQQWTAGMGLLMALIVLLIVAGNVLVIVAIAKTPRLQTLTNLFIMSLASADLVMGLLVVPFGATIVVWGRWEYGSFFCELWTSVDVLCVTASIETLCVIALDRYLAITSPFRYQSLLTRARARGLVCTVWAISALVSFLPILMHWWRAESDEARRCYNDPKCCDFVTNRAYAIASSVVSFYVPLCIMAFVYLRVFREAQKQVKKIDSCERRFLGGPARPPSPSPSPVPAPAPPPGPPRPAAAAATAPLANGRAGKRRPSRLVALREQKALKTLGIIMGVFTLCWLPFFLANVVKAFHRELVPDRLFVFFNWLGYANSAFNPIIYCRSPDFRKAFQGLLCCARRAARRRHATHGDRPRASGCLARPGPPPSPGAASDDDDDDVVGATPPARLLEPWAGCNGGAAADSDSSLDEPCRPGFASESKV
Description: Measurement of Human β1-Adrenergic Receptor Agonist Activity
The human β1-adrenergic receptor agonist activity is measured by the same method as in Test Case 1-B using CHO (Chinese hamster ovary) cells transfected by a human β1 gene inserted in pcDNA3 (Invitrogen).

[6] = HEK293; read-out: α1A receptor I.A.

SMILES | Emax [1, 6] | Emax [2] | number of experimental animals matching Score 0 (no piloerection) ([3]; n=4, observation time 5 min) | number of experimental animals matching Score 0 (no piloerection) ([3]; n=4, observation time 15 min) | number of experimental animals matching Score 0 (no piloerection) ([3]; n=4, observation time 30 min) | number of experimental animals matching Score 0.5 ([3]; n=4, observation time 30 min) | number of experimental animals matching Score 0 (no piloerection) ([3]; n=4, observation time 60 min) | number of experimental animals matching Score 0.5 ([3]; n=4, observation time 60 min) | increase in MBP (%) [4] | Emax [5] | Emax ([1]; HEK293, read-out: α1A receptor I.A.) | number of experimental animals matching Score 0.5 ([3]; n=4, observation time 15 min)
O=S(=O)(Nc1cccc([C@@H](O)CNCCOc2ccc3c(OC(F)F)n[nH]c3c2)c1)C1CC1 [ex4, (R)—N-(3-(2-(2-(3-(difluoromethoxy)-indazol-6-yloxy)ethylamino)-1-hydroxyethyl)phenyl)cyclopropanesulfonamide] | 0% | 1% | 4 | 4 | 3 | 1 | 3 | 1 | 2.4 ± 2.2% | 2% |  | 
Cc1n[nH]c2cc(OCCNC[C@H](O)c3cccc(NS(=O)(=O)C4CCC4)c3)ccc12 [ex3, (R)—N-(3-(1-hydroxy-2-(2-(3-methylindazol-6-yloxy)ethylamino)ethyl)phenyl)cyclobutanesulfonamide] |  | 1% | 4 | 3 | 3 | 1 | 4 |  | 2.0 ± 1.6% | 4% | 0% | 1
Cc1n[nH]c2cc(OCCNC[C@H](O)c3cccc(NS(=O)(=O)c4ccccc4F)c3)ccc12 [ex235, (R)-2-fluoro-N-(3-(1-hydroxy-2-(2-(3-methylindazol-6-yloxy)ethylamino)ethyl)phenyl)benzenesulfonamide] | 0% | 2% | 4 | 4 | 4 |  | 4 |  | 3.4 ± 1.0% | 16% |  | 
